Source: patent US20250340551A1, “SMALL MOLECULE MODULATORS OF STAT6” (Gilead Sciences, Inc., priority 2024, published 2025)

Assays:
[1] = test system: Eotaxin-3 (CCL26) release in human whole blood stimulated with IL-4; assay: Human whole blood eotaxin-3 assay (IL-4 stimulated, Eotaxin-3 release); assay type: cell-based; conditions: Homo sapiens; for EC50: Hec50, 48 h; for Emax: 48 h
Summary of the method: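 Lithium-heparin blood preincubated 2 h at 37° C with 4-fold compound dilutions (0.5% DMSO, triplicates), then stimulated with 400 pM recombinant human IL-4 for 48 h. Eotaxin-3 in plasma supernatant measured by MSD immunoassay.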

human STAT6 = human STAT6 (Homo sapiens (Human), UniProt P42226); assay: Surface plasmon resonance assay (Biacore 8K, binding to immobilized STAT6); conditions: human STAT6 aa122-658, N-terminal His-tag, CM5 chip, 25° C.; geometric mean; read-out: STAT6 SPR Kd
Summary of the method: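 Run at 25° C with His-tagged STAT6 aa122-658 (insect-cell expressed) amine-coupled to a CM5 chip, reference-subtracted, in PBS-P+ with 2% DMSO. Multi-cycle kinetics: 60 sec. contact, up to 300 sec. dissociation. Affinity fitted from late report-point binding isotherms, with Rmax both free and fixed to theoretical 1:1.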

Chain of human STAT6 (P42226 122-658): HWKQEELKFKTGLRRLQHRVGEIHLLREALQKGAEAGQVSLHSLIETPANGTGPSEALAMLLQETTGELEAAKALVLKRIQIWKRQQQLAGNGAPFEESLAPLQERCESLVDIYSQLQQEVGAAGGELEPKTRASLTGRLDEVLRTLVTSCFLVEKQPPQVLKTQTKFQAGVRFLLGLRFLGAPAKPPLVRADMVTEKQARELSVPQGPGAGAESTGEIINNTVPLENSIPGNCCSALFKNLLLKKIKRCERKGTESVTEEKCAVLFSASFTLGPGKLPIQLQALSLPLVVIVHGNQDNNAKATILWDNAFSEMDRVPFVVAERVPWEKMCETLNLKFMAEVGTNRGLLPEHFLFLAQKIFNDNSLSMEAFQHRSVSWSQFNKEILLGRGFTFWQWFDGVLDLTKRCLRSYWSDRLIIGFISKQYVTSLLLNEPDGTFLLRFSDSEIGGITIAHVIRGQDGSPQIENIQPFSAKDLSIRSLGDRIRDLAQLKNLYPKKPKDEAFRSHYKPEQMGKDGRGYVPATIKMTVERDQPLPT

Row | EC50 [1] [nM] | Kd (human STAT6) [nM] | SMILES | Emax [1] [%]
1 |  | 20.6 | CNc1ccc(-c2ccnc3c2cc(CN2CC[C@H](c4ccc(C(=O)N(C)C)cc4)[C@H](F)C2)n3C)cn1 (stereo in doubt) [Example 1s28, N,N-dimethyl-4-[(3S,4R)-3-fluoro-1-[[1-methyl-4-[6-(methylamino)-3-pyridyl]pyrrolo[2,3-b]pyridin-2-yl]methyl]-4-piperidyl]benzamide] | 76.4
2 | 2910 | 31.4 | Cc1cc(C(=O)N(C)C)ccc1C1CCN([C@H](C)c2cc3c(-c4ccc(N)cn4)ccnc3n2C)CC1 [Example 1af18, (R)-4-(1-(1-(4-(5-aminopyridin-2-yl)-1-methyl-1H-pyrrolo[2,3-b]pyridin-2-yl)ethyl)piperidin-4-yl)-N,N,3-trimethylbenzamide] | 
3 |  | 28.9 | CNc1ccc(-c2ccnc3c2cc(CN2CCN(c4ccc(C(=O)N(C)C)cc4C)CC2)n3C)cn1 [Example 1s14, N,N,3-Trimethyl-4-[4-[[1-methyl-4-[6-(methylamino)-3-pyridyl]pyrrolo[2,3-b]pyridin-2-yl]methyl]piperazin-1-yl]benzamide] | 37.2
4 | 1110 | 29.5 | CNc1ccc(-c2ccnc3c2cc(CN2CCC(c4ccc(C(=O)N(C)C)cc4)CC2)n3S(C)(=O)=O)cn1 [Example 1x1, N,N-Dimethyl-4-[1-[[4-[6-(methylamino)-3-pyridyl]-1-methylsulfonyl-pyrrolo[2,3-b]pyridin-2-yl]methyl]-4-piperidyl]benzamide] | 

The next lines start with the molecule.

Row | SMILES | EC50 [1] [nM] | Kd (human STAT6) [nM] | Emax [1] [%]
5 | CNc1ccc(-c2ccnc3c2cc(CN2CC=C(c4ccc(C(=O)N(C)C)cc4C)CC2)n3C)[n+]([O-])c1 [Example 1u3, N,N,3-Trimethyl-4-[1-[[1-methyl-4-[5-(methylamino)-1-oxido-pyridin-1-ium-2-yl]pyrrolo[2,3-b]pyridin-2-yl]methyl]-3,6-dihydro-2H-pyridin-4-yl]benzamide] | 104 | 16 | 
6 | [2H]C([2H])([2H])N(C(=O)c1ccc(C2=CCN([C@H](C)c3cc4c(-c5ccc(N)cn5)ccnc4n3C)CC2)cc1)C([2H])([2H])[2H] [Example 1af46, (R)-4-(1-(1-(4-(5-amino-pyridin-2-yl)-1-methyl-1H-pyrrolo[2,3-b]pyridin-2-yl)ethyl)-1,2,3,6-tetrahydro-pyridin-4-yl)-N,N-bis(methyl-d3)benzamide] | 760 | 48.3 | 
7 | CNc1ccc(-c2ccnc3c2cc(CN2CC=C(c4ccc(C(=O)N(C)C)cc4C)CC2)n3C)nn1 [Example 1p6, N,N,3-Trimethyl-4-[1-[[1-methyl-4-[6-(methylamino)pyridazin-3-yl]pyrrolo[2,3-b]pyridin-2-yl]methyl]-3,6-dihydro-2H-pyridin-4-yl]benzamide] | 723 | 22 | 
8 | CNc1ccc(-c2ccnc3c2cc(CN2CCC(c4ccc(C(=O)N(C)C)cc4)CC2=O)n3C)cn1 (stereo not drawn) [Example 1s2, N,N-Dimethyl-4-[1-[[1-methyl-4-[6-(methylamino)-3-pyridyl]pyrrolo[2,3-b]pyridin-2-yl]methyl]-2-oxo-4-piperidyl]benzamide] |  | 35.8 | 54.4
9 | CNc1ccc(-c2ccnc3c2cc(CN2CCC(c4ccc(C(=O)N(C)C)cc4)CC2)n3C)[n+]([O-])c1 [Example 1u2, N,N-Dimethyl-4-[1-[[1-methyl-4-[5-(methylamino)-1-oxido-pyridin-1-ium-2-yl]pyrrolo[2,3-b]pyridin-2-yl]methyl]-4-piperidyl]benzamide] | 328 | 44.9 | 
